Source: patent publication US4442044A, “Process for preparing monoesters and diesters of N-alkyl substituted amino methyl phosphonic acid” (priority 1983, dated 1984)

Legend:
Assay in all cases: pre-emergent herbicidal activity, soil incorporation
Type in all cases: in vivo
Details in all cases: Table III, 2 WAT, 11.2 kg/h
Yellow Nutsedge = test system: Yellow Nutsedge
Outline: (§1)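 Seeds or propagules pressed onto compacted top soil in pans; covering soil admixed with formulation of known active-ingredient amount, then filled and leveled. Pans sub-irrigated on wet sand bench ~two weeks under ordinary sunlight. Emerged plants counted versus untreated control; activity index from average percent control per species.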

Morningglory = test system: Morningglory
Outline: as §1

Lambsquarters = test system: Lambsquarters
Outline: as §1

Velvetleaf = test system: Velvetleaf
Outline: as §1

Quackgrass = test system: Quackgrass
Outline: as §1

Johnsongrass = test system: Johnsongrass
Outline: as §1

Barnyardgrass = test system: Barnyardgrass
Outline: as §1

Downy Brome = test system: Downy Brome
Outline: as §1

Cocklebur = test system: Cocklebur
Outline: as §1

Canada Thistle = test system: Canada Thistle
Outline: as §1

Smartweed = test system: Smartweed
Outline: as §1

Row | Compound | pre-emergent herbicidal activity index (Yellow Nutsedge) | pre-emergent herbicidal activity index (Morningglory) | pre-emergent herbicidal activity index (Lambsquarters) | pre-emergent herbicidal activity index (Velvetleaf) | pre-emergent herbicidal activity index (Quackgrass) | pre-emergent herbicidal activity index (Johnsongrass) | pre-emergent herbicidal activity index (Barnyardgrass) | pre-emergent herbicidal activity index (Downy Brome) | pre-emergent herbicidal activity index (Cocklebur) | pre-emergent herbicidal activity index (Canada Thistle) | pre-emergent herbicidal activity index (Smartweed)
1 | CC(C#N)OP(=O)(O)CNCC(=O)OCCCl (stereo not shown) [Example 7, glycine, N-[[(1-cyanoethoxy)hydroxyphosphinyl]methyl], 2-chloroethyl ester] | 0 (1-24% control) | 0 (1-24% control) | 0 (1-24% control) | 0 (1-24% control) | 0 (1-24% control) | 1 (25-49% control) | 0 (1-24% control) | 0 (1-24% control) | 0 (1-24% control) | 1 (25-49% control) | 0 (1-24% control)
2 | CC(C#N)OP(=O)(O)CNCC(=O)OCc1ccccc1 (stereo not shown) [Example 10, glycine, N-[[(1-cyanoethoxy)hydroxyphosphinyl]methyl]-,phenylmethyl ester] | 0 (1-24% control) | 0 (1-24% control) | 0 (1-24% control) | 0 (1-24% control) | 0 (1-24% control) | 2 (50-74% control) | 0 (1-24% control) | 0 (1-24% control) | 0 (1-24% control) | 3 (75-100% control) | 0 (1-24% control)
